{"source": "PubChem BioAssay AID2060615", "about": "(Molecular Pharmacology Branch, DTP, NCI, 2025)", "test_system": "496974-208-R-J2-PDC complex spheroids, growth % test/control", "experiment": "Anticancer human tumor 496974-208-R-J2-PDC patient-derived pancreatic carcinoma cell line growth inhibition [CLK]", "settings": "for IC50: curve of first compound; for viability, T/C: stronger effect = lower value", "in_short": "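Multi-cell-type spheroids combined patient-derived tumor cells with HUVEC endothelial cells and human mesenchymal stem cells. Paired agents were dosed in half-log steps down from about clinical Cmax, or from 10 microM where Cmax was unknown.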"}
{"compound": "C=CC(=O)Nc1cc(Nc2nccc(-c3cn(C)c4ccccc34)n2)c(OC)cc1N(C)CCN(C)C", "note": "+ CNC(=O)c1ccc(Nc2nc(OC3CCCC3)c3c(-c4ccc5nc(C)oc5c4)c[nH]c3n2)c(OC)c1;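 also: spheroids exposed to the drugs for 7 days before readout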;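 as to viability, T/C: 100% = DMSO vehicle control wells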", "values": [{"measurement": "IC50", "setting": "second compound 0.0316 µM", "value": "> 0.3", "unit": "µM"}, {"measurement": "IC50", "setting": "second compound 0.1 µM", "value": "> 0.3", "unit": "µM"}, {"measurement": "IC50", "setting": "second compound 0.316 µM", "value": "> 0.3", "unit": "µM"}, {"measurement": "IC50", "setting": "second compound 1 µM", "value": 0.152, "unit": "µM"}, {"measurement": "IC50", "setting": "second compound 3.16 µM", "value": 0.122, "unit": "µM"}, {"measurement": "IC50", "setting": "second compound 10 µM", "value": 0.0758, "unit": "µM"}, {"measurement": "viability, T/C", "setting": "second compound 0.0316 µM, first compound 0.000949 µM", "value": 108, "unit": "%"}, {"measurement": "viability, T/C", "setting": "second compound 0.0316 µM, first compound 0.003 µM", "value": 99.3, "unit": "%"}, {"measurement": "viability, T/C", "setting": "second compound 0.0316 µM, first compound 0.00949 µM", "value": 88, "unit": "%"}, {"measurement": "viability, T/C", "setting": "second compound 0.0316 µM, first compound 0.03 µM", "value": 96.5, "unit": "%"}, {"measurement": "viability, T/C", "setting": "second compound 0.0316 µM, first compound 0.0949 µM", "value": 90.2, "unit": "%"}, {"measurement": "viability, T/C", "setting": "second compound 0.0316 µM, first compound 0.3 µM", "value": 71.7, "unit": "%"}, {"measurement": "viability, T/C", "setting": "second compound 0.1 µM, first compound 0.000949 µM", "value": 80.6, "unit": "%"}, {"measurement": "viability, T/C", "setting": "second compound 0.1 µM, first compound 0.003 µM", "value": 89.5, "unit": "%"}, {"measurement": "viability, T/C", "setting": "second compound 0.1 µM, first compound 0.00949 µM", "value": 67.1, "unit": "%"}, {"measurement": "viability, T/C", "setting": "second compound 0.1 µM, first compound 0.03 µM", "value": 72.8, "unit": "%"}, {"measurement": "viability, T/C", "setting": "second compound 0.1 µM, first compound 0.0949 µM", "value": 70, "unit": "%"}, {"measurement": "viability, T/C", "setting": "second compound 0.1 µM, first compound 0.3 µM", "value": 53.1, "unit": "%"}, {"measurement": "viability, T/C", "setting": "second compound 0.316 µM, first compound 0.000949 µM", "value": 81.1, "unit": "%"}, {"measurement": "viability, T/C", "setting": "second compound 0.316 µM, first compound 0.003 µM", "value": 77.4, "unit": "%"}, {"measurement": "viability, T/C", "setting": "second compound 0.316 µM, first compound 0.00949 µM", "value": 85.2, "unit": "%"}, {"measurement": "viability, T/C", "setting": "second compound 0.316 µM, first compound 0.03 µM", "value": 74.5, "unit": "%"}, {"measurement": "viability, T/C", "setting": "second compound 0.316 µM, first compound 0.0949 µM", "value": 60.4, "unit": "%"}, {"measurement": "viability, T/C", "setting": "second compound 0.316 µM, first compound 0.3 µM", "value": 51.2, "unit": "%"}, {"measurement": "viability, T/C", "setting": "second compound 1 µM, first compound 0.000949 µM", "value": 76.7, "unit": "%"}, {"measurement": "viability, T/C", "setting": "second compound 1 µM, first compound 0.003 µM", "value": 70.2, "unit": "%"}, {"measurement": "viability, T/C", "setting": "second compound 1 µM, first compound 0.00949 µM", "value": 66, "unit": "%"}, {"measurement": "viability, T/C", "setting": "second compound 1 µM, first compound 0.03 µM", "value": 65.1, "unit": "%"}, {"measurement": "viability, T/C", "setting": "second compound 1 µM, first compound 0.0949 µM", "value": 57.2, "unit": "%"}, {"measurement": "viability, T/C", "setting": "second compound 1 µM, first compound 0.3 µM", "value": 40.9, "unit": "%"}, {"measurement": "viability, T/C", "setting": "second compound 3.16 µM, first compound 0.000949 µM", "value": 63.4, "unit": "%"}, {"measurement": "viability, T/C", "setting": "second compound 3.16 µM, first compound 0.003 µM", "value": 64.1, "unit": "%"}, {"measurement": "viability, T/C", "setting": "second compound 3.16 µM, first compound 0.00949 µM", "value": 65.6, "unit": "%"}, {"measurement": "viability, T/C", "setting": "second compound 3.16 µM, first compound 0.03 µM", "value": 57.8, "unit": "%"}, {"measurement": "viability, T/C", "setting": "second compound 3.16 µM, first compound 0.0949 µM", "value": 51.7, "unit": "%"}, {"measurement": "viability, T/C", "setting": "second compound 3.16 µM, first compound 0.3 µM", "value": 41.1, "unit": "%"}, {"measurement": "viability, T/C", "setting": "second compound 10 µM, first compound 0.000949 µM", "value": 60.3, "unit": "%"}, {"measurement": "viability, T/C", "setting": "second compound 10 µM, first compound 0.003 µM", "value": 57.9, "unit": "%"}, {"measurement": "viability, T/C", "setting": "second compound 10 µM, first compound 0.00949 µM", "value": 57.5, "unit": "%"}, {"measurement": "viability, T/C", "setting": "second compound 10 µM, first compound 0.03 µM", "value": 51.3, "unit": "%"}, {"measurement": "viability, T/C", "setting": "second compound 10 µM, first compound 0.0949 µM", "value": 51.4, "unit": "%"}, {"measurement": "viability, T/C", "setting": "second compound 10 µM, first compound 0.3 µM", "value": 30.4, "unit": "%"}]}
{"compound": "CC1(C)CCC(CN2CCN(c3ccc(C(=O)NS(=O)(=O)c4ccc(NCC5CCOCC5)c([N+](=O)[O-])c4)c(Oc4cnc5[nH]ccc5c4)c3)CC2)=C(c2ccc(Cl)cc2)C1", "note": "+ CNC(=O)c1ccc(Nc2nc(OC3CCCC3)c3c(-c4ccc5nc(C)oc5c4)c[nH]c3n2)c(OC)c1", "values": [{"measurement": "IC50", "setting": "second compound 0.0316 µM", "value": 8.41, "unit": "µM"}, {"measurement": "IC50", "setting": "second compound 0.1 µM", "value": 7.09, "unit": "µM"}, {"measurement": "IC50", "setting": "second compound 0.316 µM", "value": 9.3, "unit": "µM"}, {"measurement": "IC50", "setting": "second compound 1 µM", "value": 5.67, "unit": "µM"}, {"measurement": "IC50", "setting": "second compound 3.16 µM", "value": 4.11, "unit": "µM"}, {"measurement": "IC50", "setting": "second compound 10 µM", "value": 3.9, "unit": "µM"}, {"measurement": "viability, T/C", "setting": "second compound 0.0316 µM, first compound 0.0316 µM", "value": 87.7, "unit": "%"}, {"measurement": "viability, T/C", "setting": "second compound 0.0316 µM, first compound 0.1 µM", "value": 93.6, "unit": "%"}, {"measurement": "viability, T/C", "setting": "second compound 0.0316 µM, first compound 0.316 µM", "value": 86.4, "unit": "%"}, {"measurement": "viability, T/C", "setting": "second compound 0.0316 µM, first compound 1 µM", "value": 92.4, "unit": "%"}, {"measurement": "viability, T/C", "setting": "second compound 0.0316 µM, first compound 3.16 µM", "value": 84.4, "unit": "%"}, {"measurement": "viability, T/C", "setting": "second compound 0.0316 µM, first compound 10 µM", "value": 43.8, "unit": "%"}, {"measurement": "viability, T/C", "setting": "second compound 0.1 µM, first compound 0.0316 µM", "value": 75.1, "unit": "%"}, {"measurement": "viability, T/C", "setting": "second compound 0.1 µM, first compound 0.1 µM", "value": 73.3, "unit": "%"}, {"measurement": "viability, T/C", "setting": "second compound 0.1 µM, first compound 0.316 µM", "value": 76.8, "unit": "%"}, {"measurement": "viability, T/C", "setting": "second compound 0.1 µM, first compound 1 µM", "value": 82.8, "unit": "%"}, {"measurement": "viability, T/C", "setting": "second compound 0.1 µM, first compound 3.16 µM", "value": 72.8, "unit": "%"}, {"measurement": "viability, T/C", "setting": "second compound 0.1 µM, first compound 10 µM", "value": 39.9, "unit": "%"}, {"measurement": "viability, T/C", "setting": "second compound 0.316 µM, first compound 0.0316 µM", "value": 75.8, "unit": "%"}, {"measurement": "viability, T/C", "setting": "second compound 0.316 µM, first compound 0.1 µM", "value": 76.2, "unit": "%"}, {"measurement": "viability, T/C", "setting": "second compound 0.316 µM, first compound 0.316 µM", "value": 73.6, "unit": "%"}, {"measurement": "viability, T/C", "setting": "second compound 0.316 µM, first compound 1 µM", "value": 85.3, "unit": "%"}, {"measurement": "viability, T/C", "setting": "second compound 0.316 µM, first compound 3.16 µM", "value": 71, "unit": "%"}, {"measurement": "viability, T/C", "setting": "second compound 0.316 µM, first compound 10 µM", "value": 48.5, "unit": "%"}, {"measurement": "viability, T/C", "setting": "second compound 1 µM, first compound 0.0316 µM", "value": 71, "unit": "%"}, {"measurement": "viability, T/C", "setting": "second compound 1 µM, first compound 0.1 µM", "value": 71.7, "unit": "%"}, {"measurement": "viability, T/C", "setting": "second compound 1 µM, first compound 0.316 µM", "value": 73.5, "unit": "%"}, {"measurement": "viability, T/C", "setting": "second compound 1 µM, first compound 1 µM", "value": 67.3, "unit": "%"}, {"measurement": "viability, T/C", "setting": "second compound 1 µM, first compound 3.16 µM", "value": 61.1, "unit": "%"}, {"measurement": "viability, T/C", "setting": "second compound 1 µM, first compound 10 µM", "value": 39.5, "unit": "%"}, {"measurement": "viability, T/C", "setting": "second compound 3.16 µM, first compound 0.0316 µM", "value": 59.5, "unit": "%"}, {"measurement": "viability, T/C", "setting": "second compound 3.16 µM, first compound 0.1 µM", "value": 56.2, "unit": "%"}, {"measurement": "viability, T/C", "setting": "second compound 3.16 µM, first compound 0.316 µM", "value": 61.5, "unit": "%"}, {"measurement": "viability, T/C", "setting": "second compound 3.16 µM, first compound 1 µM", "value": 62.5, "unit": "%"}, {"measurement": "viability, T/C", "setting": "second compound 3.16 µM, first compound 3.16 µM", "value": 52.6, "unit": "%"}, {"measurement": "viability, T/C", "setting": "second compound 3.16 µM, first compound 10 µM", "value": 35.5, "unit": "%"}, {"measurement": "viability, T/C", "setting": "second compound 10 µM, first compound 0.0316 µM", "value": 55.8, "unit": "%"}, {"measurement": "viability, T/C", "setting": "second compound 10 µM, first compound 0.1 µM", "value": 55.2, "unit": "%"}, {"measurement": "viability, T/C", "setting": "second compound 10 µM, first compound 0.316 µM", "value": 54.3, "unit": "%"}, {"measurement": "viability, T/C", "setting": "second compound 10 µM, first compound 1 µM", "value": 50.1, "unit": "%"}, {"measurement": "viability, T/C", "setting": "second compound 10 µM, first compound 3.16 µM", "value": 54.4, "unit": "%"}, {"measurement": "viability, T/C", "setting": "second compound 10 µM, first compound 10 µM", "value": 32.9, "unit": "%"}]}
